US20140073637A1, “AMINO-SUBSTITUTED-ALKYLOXY-BENZO[E]PYRIDO[4,3-B]INDOLE DERIVATIVES AS NEW POTENT KINASE INHIBITORS” (INSTITUT CURIE, priority 2011, published 2014)

Key:
Water solubility = format: physicochemical
VEGFR = assay: Kinase profiling in vitro at 1 μM; format: biochemical; conditions: 1 microMolar in vitro
Experimental: (§1) The specificity of C14 was tested, in vitro, against 121 kinases representative of the kinome. Assays run in duplicate, at the concentration of 1 μM, were performed by MRC (Dundee, UK). Results are represented in FIG. 1. The main targets are highlighted in FIG. 1B. The profiling was performed at the MRC (Dundee University), in duplicate, on a set of 121 kinases. The panel is representative of the major different classes of kinases. Compounds were used at the concentration of 1 μM. In vitro, IC50 were determined on recombinant kinases by Reaction biology Corp (USA).

TrkA = TrkA (Homo sapiens, UniProt P04629); assay: Kinase profiling in vitro at 1 μM; format: biochemical; conditions: 1 microMolar in vitro, read-out: Percent of remaining activity
Chain of TrkA (P04629 33-796, species assumed): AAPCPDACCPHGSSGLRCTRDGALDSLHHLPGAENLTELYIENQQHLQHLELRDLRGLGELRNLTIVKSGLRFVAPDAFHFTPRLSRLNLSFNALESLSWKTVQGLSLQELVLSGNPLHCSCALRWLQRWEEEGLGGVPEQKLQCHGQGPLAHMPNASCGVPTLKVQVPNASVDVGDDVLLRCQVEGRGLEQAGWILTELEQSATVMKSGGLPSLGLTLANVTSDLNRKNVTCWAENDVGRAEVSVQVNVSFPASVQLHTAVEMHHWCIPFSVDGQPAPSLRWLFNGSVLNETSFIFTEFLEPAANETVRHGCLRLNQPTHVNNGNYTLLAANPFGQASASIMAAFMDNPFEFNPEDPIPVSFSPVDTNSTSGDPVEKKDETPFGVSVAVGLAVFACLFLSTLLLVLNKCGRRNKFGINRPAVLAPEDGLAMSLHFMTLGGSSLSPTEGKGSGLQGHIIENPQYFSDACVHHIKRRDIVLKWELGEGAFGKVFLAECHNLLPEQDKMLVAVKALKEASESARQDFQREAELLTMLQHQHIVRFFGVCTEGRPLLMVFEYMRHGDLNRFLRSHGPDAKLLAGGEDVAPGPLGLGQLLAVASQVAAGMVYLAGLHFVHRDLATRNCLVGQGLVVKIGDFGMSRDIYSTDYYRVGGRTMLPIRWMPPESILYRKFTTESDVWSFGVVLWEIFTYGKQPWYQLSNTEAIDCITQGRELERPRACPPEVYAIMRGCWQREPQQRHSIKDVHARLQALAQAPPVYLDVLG
Experimental: as §1

Brsk1 = Brsk1 (Homo sapiens, UniProt Q8TDC3); assay: Kinase profiling in vitro at 1 μM; format: biochemical; conditions: 1 microMolar in vitro, read-out: Percent of remaining activity
Chain of Brsk1 (Q8TDC3 whole entry, species assumed): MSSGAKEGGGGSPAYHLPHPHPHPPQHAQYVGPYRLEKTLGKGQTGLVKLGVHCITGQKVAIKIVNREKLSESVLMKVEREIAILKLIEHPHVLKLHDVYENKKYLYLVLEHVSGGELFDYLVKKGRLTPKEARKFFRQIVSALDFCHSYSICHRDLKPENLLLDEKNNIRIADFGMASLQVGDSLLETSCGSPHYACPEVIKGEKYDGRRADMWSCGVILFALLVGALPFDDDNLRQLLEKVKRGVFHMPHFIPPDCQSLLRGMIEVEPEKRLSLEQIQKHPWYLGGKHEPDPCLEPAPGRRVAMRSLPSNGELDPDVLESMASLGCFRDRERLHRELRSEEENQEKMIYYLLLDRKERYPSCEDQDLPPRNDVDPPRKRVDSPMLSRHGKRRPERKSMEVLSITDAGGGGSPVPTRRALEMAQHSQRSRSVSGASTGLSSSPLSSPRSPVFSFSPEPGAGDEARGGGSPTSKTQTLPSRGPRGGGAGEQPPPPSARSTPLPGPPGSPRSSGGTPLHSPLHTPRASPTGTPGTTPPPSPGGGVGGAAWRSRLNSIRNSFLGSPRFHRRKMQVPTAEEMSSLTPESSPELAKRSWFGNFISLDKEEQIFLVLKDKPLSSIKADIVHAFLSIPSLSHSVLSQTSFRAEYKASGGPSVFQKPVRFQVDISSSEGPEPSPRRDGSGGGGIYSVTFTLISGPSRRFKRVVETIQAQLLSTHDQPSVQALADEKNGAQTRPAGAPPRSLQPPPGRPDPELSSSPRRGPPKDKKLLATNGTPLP
Experimental: as §1

MLK1 = MLK1 (Homo sapiens, UniProt P80192); assay: Kinase profiling in vitro at 1 μM; format: biochemical; conditions: 1 microMolar in vitro, read-out: Percent of remaining activity
Chain of MLK1 (P80192 whole entry, species assumed): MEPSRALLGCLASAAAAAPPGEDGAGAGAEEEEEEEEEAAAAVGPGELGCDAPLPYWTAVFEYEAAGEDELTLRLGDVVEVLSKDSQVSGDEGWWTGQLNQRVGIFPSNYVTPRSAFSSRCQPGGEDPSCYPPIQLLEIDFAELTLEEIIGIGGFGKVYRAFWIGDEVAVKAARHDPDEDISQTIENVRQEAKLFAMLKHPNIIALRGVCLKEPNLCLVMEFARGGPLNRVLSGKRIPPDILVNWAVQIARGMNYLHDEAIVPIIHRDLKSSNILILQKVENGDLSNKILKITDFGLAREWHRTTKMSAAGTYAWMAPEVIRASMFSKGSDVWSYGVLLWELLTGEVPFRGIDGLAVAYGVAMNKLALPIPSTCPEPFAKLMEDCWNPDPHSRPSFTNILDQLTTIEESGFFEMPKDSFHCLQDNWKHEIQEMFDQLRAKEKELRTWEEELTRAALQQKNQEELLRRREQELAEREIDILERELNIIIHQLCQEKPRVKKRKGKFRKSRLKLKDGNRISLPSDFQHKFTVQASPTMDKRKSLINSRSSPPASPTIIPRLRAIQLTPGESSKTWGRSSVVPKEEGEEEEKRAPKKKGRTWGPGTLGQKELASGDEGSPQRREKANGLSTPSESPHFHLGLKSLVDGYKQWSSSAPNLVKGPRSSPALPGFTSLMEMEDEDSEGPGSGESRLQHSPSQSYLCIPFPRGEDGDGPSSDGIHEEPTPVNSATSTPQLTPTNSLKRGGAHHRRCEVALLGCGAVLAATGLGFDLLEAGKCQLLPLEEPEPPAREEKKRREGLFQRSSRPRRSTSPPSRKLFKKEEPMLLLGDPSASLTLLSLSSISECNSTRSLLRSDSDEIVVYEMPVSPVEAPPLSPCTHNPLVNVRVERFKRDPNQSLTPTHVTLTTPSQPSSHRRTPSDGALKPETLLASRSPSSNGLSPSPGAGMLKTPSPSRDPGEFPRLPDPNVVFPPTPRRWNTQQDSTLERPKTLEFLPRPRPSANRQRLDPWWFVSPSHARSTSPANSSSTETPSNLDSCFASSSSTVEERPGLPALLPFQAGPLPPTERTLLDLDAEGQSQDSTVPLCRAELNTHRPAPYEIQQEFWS
Experimental: as §1

STK33 = STK33 (Homo sapiens, UniProt Q9BYT3); assay: Kinase profiling in vitro at 1 μM; format: biochemical; conditions: 1 microMolar in vitro, read-out: Percent of remaining activity
Chain of STK33 (Q9BYT3 whole entry, species assumed): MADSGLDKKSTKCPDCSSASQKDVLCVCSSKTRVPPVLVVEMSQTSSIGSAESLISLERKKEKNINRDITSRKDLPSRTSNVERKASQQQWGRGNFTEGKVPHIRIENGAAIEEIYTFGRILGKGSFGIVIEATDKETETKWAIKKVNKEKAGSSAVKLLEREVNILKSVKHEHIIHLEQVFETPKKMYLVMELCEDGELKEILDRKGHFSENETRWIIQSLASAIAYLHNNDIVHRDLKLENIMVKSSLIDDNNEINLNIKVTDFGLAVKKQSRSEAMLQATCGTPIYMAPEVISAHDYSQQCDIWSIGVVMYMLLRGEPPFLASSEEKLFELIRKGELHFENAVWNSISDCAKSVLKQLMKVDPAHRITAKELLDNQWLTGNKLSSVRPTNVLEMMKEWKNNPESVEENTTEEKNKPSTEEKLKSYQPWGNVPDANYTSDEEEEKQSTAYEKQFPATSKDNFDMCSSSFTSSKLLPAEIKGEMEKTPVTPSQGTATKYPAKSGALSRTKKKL
Experimental: as §1

Phk = assay: Kinase profiling in vitro at 1 μM; format: biochemical; conditions: 1 microMolar in vitro
Experimental: as §1

MELK = MELK (Homo sapiens, UniProt Q14680); assay: Kinase profiling in vitro at 1 μM; format: biochemical; conditions: 1 microMolar in vitro, read-out: Percent of remaining activity
Chain of MELK (Q14680 whole entry, species assumed): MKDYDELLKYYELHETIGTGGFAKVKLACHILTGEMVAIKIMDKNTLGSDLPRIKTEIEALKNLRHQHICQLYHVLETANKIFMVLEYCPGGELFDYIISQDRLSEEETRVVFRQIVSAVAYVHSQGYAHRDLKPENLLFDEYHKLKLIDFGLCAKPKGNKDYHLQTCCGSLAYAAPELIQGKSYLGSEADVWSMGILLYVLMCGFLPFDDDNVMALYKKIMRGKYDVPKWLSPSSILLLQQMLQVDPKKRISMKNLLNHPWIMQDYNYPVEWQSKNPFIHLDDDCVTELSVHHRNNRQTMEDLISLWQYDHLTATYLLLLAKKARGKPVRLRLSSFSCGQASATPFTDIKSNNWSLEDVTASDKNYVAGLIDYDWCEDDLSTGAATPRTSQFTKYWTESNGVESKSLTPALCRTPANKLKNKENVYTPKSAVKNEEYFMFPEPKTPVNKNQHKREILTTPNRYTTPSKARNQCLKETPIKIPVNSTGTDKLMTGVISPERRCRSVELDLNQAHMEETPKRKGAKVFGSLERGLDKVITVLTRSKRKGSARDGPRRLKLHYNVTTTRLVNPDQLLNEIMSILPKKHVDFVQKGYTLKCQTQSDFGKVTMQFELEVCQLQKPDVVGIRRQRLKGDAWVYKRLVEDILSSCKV
Experimental: as §1

Jak2 = Jak2 (Homo sapiens, UniProt O60674); assay: Kinase profiling in vitro at 1 μM; format: biochemical; conditions: 1 microMolar in vitro, read-out: Percent of remaining activity
Experimental: as §1

FGFR1 = FGFR1 (Homo sapiens, UniProt P11362); assay: Kinase profiling in vitro at 1 μM; format: biochemical; conditions: 1 microMolar in vitro, read-out: Percent of remaining activity
Experimental: as §1

Gck = Gck (Homo sapiens, UniProt Q12851); assay: Kinase profiling in vitro at 1 μM; format: biochemical; conditions: 1 microMolar in vitro, read-out: Percent of remaining activity
Experimental: as §1

NUAK1 [1] = target: T1, NUAK1 (Homo sapiens, UniProt O60285); assay: Kinase profiling in vitro at 1 μM; format: biochemical; conditions: 1 microMolar in vitro, read-out: Percent of remaining activity
T1 construct: Reaction biology Corp (USA), service
T1 sequence (O60285 1-661): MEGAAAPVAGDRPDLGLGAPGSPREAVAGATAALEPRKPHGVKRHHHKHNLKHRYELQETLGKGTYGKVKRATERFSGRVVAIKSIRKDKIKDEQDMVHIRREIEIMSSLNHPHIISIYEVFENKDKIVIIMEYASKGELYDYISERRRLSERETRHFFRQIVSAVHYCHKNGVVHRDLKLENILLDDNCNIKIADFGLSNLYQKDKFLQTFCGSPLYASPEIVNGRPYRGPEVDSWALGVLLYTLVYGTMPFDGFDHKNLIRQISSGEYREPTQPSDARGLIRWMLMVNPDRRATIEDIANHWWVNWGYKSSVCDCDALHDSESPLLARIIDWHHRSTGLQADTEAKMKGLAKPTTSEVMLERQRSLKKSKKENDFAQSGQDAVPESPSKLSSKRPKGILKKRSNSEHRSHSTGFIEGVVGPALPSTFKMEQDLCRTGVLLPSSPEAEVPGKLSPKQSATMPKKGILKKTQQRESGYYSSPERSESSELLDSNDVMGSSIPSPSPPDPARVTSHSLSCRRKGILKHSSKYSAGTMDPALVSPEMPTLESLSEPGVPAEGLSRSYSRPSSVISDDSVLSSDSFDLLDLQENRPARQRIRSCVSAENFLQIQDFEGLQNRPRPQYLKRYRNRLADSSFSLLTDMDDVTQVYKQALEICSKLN
Experimental: as §1

CAMKKb = CAMKKb (Homo sapiens, UniProt Q96RR4); assay: Kinase profiling in vitro at 1 μM; format: biochemical; conditions: 1 microMolar in vitro, read-out: Percent of remaining activity
Chain of CAMKKb (Q96RR4 whole entry, species assumed): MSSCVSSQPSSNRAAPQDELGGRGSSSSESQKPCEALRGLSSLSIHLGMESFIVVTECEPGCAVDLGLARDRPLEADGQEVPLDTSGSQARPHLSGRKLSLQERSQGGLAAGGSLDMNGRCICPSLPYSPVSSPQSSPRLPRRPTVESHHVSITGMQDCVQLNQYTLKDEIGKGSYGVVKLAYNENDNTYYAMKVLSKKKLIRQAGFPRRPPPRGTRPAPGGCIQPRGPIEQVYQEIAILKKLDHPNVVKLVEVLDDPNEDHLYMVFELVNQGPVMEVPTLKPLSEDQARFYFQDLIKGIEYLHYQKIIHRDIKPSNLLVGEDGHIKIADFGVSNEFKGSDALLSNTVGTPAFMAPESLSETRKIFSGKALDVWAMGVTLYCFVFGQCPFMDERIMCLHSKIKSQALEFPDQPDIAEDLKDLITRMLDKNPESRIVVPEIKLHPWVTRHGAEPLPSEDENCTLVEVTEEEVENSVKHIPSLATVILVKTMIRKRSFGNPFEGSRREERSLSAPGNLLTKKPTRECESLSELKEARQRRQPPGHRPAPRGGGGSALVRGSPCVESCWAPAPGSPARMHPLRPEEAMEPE
Experimental: as §1

IR = IR (Homo sapiens, UniProt P06213); assay: Kinase profiling in vitro at 1 μM; format: biochemical; conditions: 1 microMolar in vitro, read-out: Percent of remaining activity
Experimental: as §1

Tak1 = Tak1 (Homo sapiens, UniProt O43318); assay: Kinase profiling in vitro at 1 μM; format: biochemical; conditions: 1 microMolar in vitro, read-out: Percent of remaining activity
Experimental: as §1

IRAK4 = IRAK4 (Homo sapiens, UniProt Q9NWZ3); assay: Kinase profiling in vitro at 1 μM; format: biochemical; conditions: 1 microMolar in vitro, read-out: Percent of remaining activity
Chain of IRAK4 (Q9NWZ3 whole entry, species assumed): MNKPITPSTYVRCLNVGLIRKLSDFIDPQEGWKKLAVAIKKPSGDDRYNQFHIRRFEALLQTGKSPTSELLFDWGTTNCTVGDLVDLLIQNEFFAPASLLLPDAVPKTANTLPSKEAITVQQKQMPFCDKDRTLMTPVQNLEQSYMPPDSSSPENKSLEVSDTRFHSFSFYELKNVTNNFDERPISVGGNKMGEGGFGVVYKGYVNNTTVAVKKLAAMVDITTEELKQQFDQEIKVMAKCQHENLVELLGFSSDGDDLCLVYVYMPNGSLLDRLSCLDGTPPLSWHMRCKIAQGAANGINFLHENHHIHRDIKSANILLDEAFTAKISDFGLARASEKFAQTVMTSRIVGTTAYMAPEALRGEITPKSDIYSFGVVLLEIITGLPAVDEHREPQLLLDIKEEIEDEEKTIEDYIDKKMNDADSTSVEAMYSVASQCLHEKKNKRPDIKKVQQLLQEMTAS
Experimental: as §1

Quiescent H358 cells = assay: Viability of quiescent (serum-deprived) cells; format: cell-based; conditions: 0.5 μM, 96 hours post-treatment, absence of serum
Experimental: FIG. 5: Quiescent H358 cells were incubated with the compound, for 96 h, in the absence of serum. Three different concentrations of C14 were used and live cells were estimated with MTT (Promega). In the control only DMSO was added.
H358 cells were deprived in serum for 2 days and then incubated with the compound, for 96 h, still in the absence of serum. At the concentration (0.5 μM) that induced death of more than 50% of cycling cells, 90% of the cells are still alive 96 hours post-treatment (FIG. 5). C14 is thus not deleterious for quiescent cells.
Cells were drawn to quiescence by serum withdrawn. After two days of serum deprivations cells were incubated with different concentrations of compounds for 96 hours, serum being still omitted. The viability is determined as described above.

NUAK1 [2] = target: T1, NUAK1; assay: In vitro IC50 on recombinant kinase; format: biochemical
Experimental: The efficiency of the 3-amino-ethoxy compounds to inhibit Nuak1 was determined in vitro.
The profiling was performed at the MRC (Dundee University), in duplicate, on a set of 121 kinases. The panel is representative of the major different classes of kinases. Compounds were used at the concentration of 1 μM. In vitro, IC50 were determined on recombinant kinases by Reaction biology Corp (USA).

NUAK1 [3] = target: T1, NUAK1; assay: Nuak1 inhibition in cellulo: LATS1 stabilization by western blot; format: cell-based; conditions: HeLa cells treated ON; whole cell extracts, WB, compared to control
Experimental: HeLa cells were treated ON by C21 (also named CH21) and C14M and compared to the control (C0). Whole cell extracts were analyzed by WB with anti LATS1 monoclonal antibody and the loading was quantified through the tubulin signal.
Therefore the possibility of inhibiting Nuakl, in cellulo, was evaluated through the stabilization of the Large Antigen Tumour Suppressor LATS1.
Cells were treated by compounds, harvested and lyzed in 9M urea then supplemented with Laemmli sample buffer. Cell extracts were subjected to SDS-PAGE and transferred to nitrocellulose filter (GE Healthcare). After blocking with 5% non-fat milk in PBS for at least 1 hour, the membranes were incubated with the primary antibodies. The following antibodies were used: phospho-Histone H3 Ser10 (1:2000, Upstate Biotechnology), anti LAST1 (Cell signalling), anti Aurora B (epitomics) and anti alpha-tubulin (Sigma) Anti-rabbit horseradish peroxidase (1:5000, GE Healthcare) was used as secondary antibodies. Bands were visualized by ECL technique (Amersham Bioscience).

| solubility in water (in words) (Water solubility) | Percent of remaining activity (VEGFR) [%] | remaining activity at 1 µM (TrkA) [%] | remaining activity at 1 µM (Brsk1) [%] | remaining activity at 1 µM (MLK1) [%] | remaining activity at 1 µM (STK33) [%] | Percent of remaining activity (Phk) [%] | remaining activity at 1 µM (MELK) [%] | remaining activity at 1 µM (Jak2) [%] | remaining activity at 1 µM (FGFR1) [%] | remaining activity at 1 µM (Gck) [%] | remaining activity at 1 µM (NUAK1 [1]) [%] | remaining activity at 1 µM (CAMKKb) [%] | remaining activity at 1 µM (IR) [%] | remaining activity at 1 µM (Tak1) [%] | remaining activity at 1 µM (IRAK4) [%] | IC50 (NUAK1 [2]) [nM] | LATS1 protein level (in words) (NUAK1 [3]) | Structure (SMILES) | cells still alive (Quiescent H358 cells) [%] |
| --- | --- | --- | --- | --- | --- | --- | --- | --- | --- | --- | --- | --- | --- | --- | --- | --- | --- | --- | --- |
| water soluble | 16 | 5 | 22 | 27 | 31 | 10 | 31 | 21 | 24 | 11 | 4 | 22 | 15 | 6 | 25 | 1.4 |  | Cc1c[nH]c(=O)c2c1[nH]c1ccc3cc(OCCN(C)C)ccc3c12 [Compound C14, 3-(2-N,N-Dimethylaminoethoxy)-8-methyl-7H,10H-benzo[e]pyrido(4,3-b)indol-11-one] | 90 |
|  |  |  |  |  |  |  |  |  |  |  |  |  |  |  |  |  | large increase | Cc1cncc2c1[nH]c1ccc3cc(OCCN(C)C)ccc3c12 [CH21, 3-(2-N,N-dimethylaminoethyloxy)-8-methyl-7H-benzo[e]pyrido(4,3-b)indole] |  |
